In the kinase profiling compilation of Christmann-Franck et al. (2016):

How the values were obtained:
Experiment in all cases: KINOMEscan competition binding
[1] = tested on: ABL1 (human), P00519 [Y253F]; conditions: compound 10.0 µM
AURKC (human) = AURKC (human) (UniProt Q9UQB9); conditions: compound 10.0 µM
BMPR2 (human) = BMPR2 (human) (UniProt Q13873); conditions: compound 10.0 µM
CAMK2G (human) = CAMK2G (human) (UniProt Q13555); conditions: compound 10.0 µM
CASK (human) = CASK (human) (UniProt O14936); conditions: compound 10.0 µM
CDC2L2 (human) = CDC2L2 (human) (UniProt Q9UQ88); conditions: compound 10.0 µM
CDK4 CCND3 (human) = CDK4 CCND3 (human) (UniProt P11802+P30281); conditions: compound 10.0 µM
CDK8 (human) = CDK8 (human) (UniProt P49336); conditions: compound 10.0 µM
CLK1 (human) = CLK1 (human) (UniProt P49759); conditions: compound 10.0 µM
CSK (human) = CSK (human) (UniProt P41240); conditions: compound 10.0 µM
DAPK3 (human) = DAPK3 (human) (UniProt O43293); conditions: compound 10.0 µM
EGFR (human) = EGFR (human) (UniProt P00533); conditions: compound 10.0 µM
[2] = tested on: EGFR (human), P00533 [L861Q]; conditions: compound 10.0 µM
EPHA6 (human) = EPHA6 (human) (UniProt Q9UF33); conditions: compound 10.0 µM
EPHB2 (human) = EPHB2 (human) (UniProt P29323); conditions: compound 10.0 µM
Sequence of EPHB2 (human) (P29323 whole entry, looked up): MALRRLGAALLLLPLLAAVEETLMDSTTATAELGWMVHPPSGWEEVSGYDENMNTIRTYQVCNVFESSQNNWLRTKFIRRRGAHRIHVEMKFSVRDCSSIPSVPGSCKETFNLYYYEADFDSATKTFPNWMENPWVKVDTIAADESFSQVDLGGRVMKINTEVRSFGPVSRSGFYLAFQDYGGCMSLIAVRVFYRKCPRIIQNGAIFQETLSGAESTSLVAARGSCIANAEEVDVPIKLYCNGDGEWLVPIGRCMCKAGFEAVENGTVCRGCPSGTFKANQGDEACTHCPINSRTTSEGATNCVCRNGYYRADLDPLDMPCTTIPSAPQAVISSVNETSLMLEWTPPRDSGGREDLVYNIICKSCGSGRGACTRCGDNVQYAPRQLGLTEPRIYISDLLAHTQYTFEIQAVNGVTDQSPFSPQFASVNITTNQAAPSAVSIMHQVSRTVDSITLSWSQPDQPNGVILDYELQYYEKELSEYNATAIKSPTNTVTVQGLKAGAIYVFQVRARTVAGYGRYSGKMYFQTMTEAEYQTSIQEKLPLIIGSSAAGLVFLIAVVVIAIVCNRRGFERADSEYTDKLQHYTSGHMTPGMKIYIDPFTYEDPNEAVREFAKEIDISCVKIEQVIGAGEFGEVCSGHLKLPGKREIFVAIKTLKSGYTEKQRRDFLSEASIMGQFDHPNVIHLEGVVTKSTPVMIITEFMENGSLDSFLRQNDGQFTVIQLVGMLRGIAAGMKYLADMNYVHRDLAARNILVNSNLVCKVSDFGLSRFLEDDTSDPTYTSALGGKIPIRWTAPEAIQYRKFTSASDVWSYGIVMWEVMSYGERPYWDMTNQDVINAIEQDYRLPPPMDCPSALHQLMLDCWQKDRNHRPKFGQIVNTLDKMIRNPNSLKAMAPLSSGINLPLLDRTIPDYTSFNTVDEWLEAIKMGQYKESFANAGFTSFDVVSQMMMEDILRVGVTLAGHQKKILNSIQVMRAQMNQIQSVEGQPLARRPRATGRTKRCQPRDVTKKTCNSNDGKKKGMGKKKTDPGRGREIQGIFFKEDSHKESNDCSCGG

HIPK2 (human) = HIPK2 (human) (UniProt Q9H2X6); conditions: compound 10.0 µM
IRAK3 (human) = IRAK3 (human) (UniProt Q9Y616); conditions: compound 10.0 µM
Sequence of IRAK3 (human) (Q9Y616 whole entry, looked up): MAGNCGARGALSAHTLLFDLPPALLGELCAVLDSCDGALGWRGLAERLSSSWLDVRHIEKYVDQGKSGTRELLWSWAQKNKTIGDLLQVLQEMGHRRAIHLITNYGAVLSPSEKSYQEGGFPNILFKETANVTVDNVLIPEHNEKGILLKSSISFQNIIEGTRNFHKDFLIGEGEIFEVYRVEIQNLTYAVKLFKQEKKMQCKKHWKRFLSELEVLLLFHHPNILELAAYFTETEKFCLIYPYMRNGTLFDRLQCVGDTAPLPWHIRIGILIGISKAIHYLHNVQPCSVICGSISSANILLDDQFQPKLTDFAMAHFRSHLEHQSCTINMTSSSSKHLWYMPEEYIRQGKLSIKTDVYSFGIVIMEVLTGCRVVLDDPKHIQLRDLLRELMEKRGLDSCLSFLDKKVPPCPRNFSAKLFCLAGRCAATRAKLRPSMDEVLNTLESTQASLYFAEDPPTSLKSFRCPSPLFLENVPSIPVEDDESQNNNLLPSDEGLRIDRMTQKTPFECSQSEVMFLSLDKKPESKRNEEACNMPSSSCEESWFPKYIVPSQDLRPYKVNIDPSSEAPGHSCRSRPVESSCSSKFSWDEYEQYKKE

KDR (human) = KDR (human) (UniProt P35968); conditions: compound 10.0 µM
[3] = tested on: KIT (human), P10721 [L576P]; conditions: compound 10.0 µM
MAPKAPK5 (human) = MAPKAPK5 (human) (UniProt Q8IW41); conditions: compound 10.0 µM
MERTK (human) = MERTK (human) (UniProt Q12866); conditions: compound 10.0 µM
[4] = tested on: MET (human), P08581 [Y1235D]; conditions: compound 10.0 µM
NTRK1 (human) = NTRK1 (human) (UniProt P04629); conditions: compound 10.0 µM
NTRK2 (human) = NTRK2 (human) (UniProt Q16620); conditions: compound 10.0 µM
NUAK1 (human) = NUAK1 (human) (UniProt O60285); conditions: compound 10.0 µM
OXSR1 (human) = OXSR1 (human) (UniProt O95747); conditions: compound 10.0 µM
[5] = tested on: PIK3CA (human), P42336 [E542K]; conditions: compound 10.0 µM
Sequence of PIK3CA (human), P42336 [E542K] (P42336 whole entry E542K, looked up): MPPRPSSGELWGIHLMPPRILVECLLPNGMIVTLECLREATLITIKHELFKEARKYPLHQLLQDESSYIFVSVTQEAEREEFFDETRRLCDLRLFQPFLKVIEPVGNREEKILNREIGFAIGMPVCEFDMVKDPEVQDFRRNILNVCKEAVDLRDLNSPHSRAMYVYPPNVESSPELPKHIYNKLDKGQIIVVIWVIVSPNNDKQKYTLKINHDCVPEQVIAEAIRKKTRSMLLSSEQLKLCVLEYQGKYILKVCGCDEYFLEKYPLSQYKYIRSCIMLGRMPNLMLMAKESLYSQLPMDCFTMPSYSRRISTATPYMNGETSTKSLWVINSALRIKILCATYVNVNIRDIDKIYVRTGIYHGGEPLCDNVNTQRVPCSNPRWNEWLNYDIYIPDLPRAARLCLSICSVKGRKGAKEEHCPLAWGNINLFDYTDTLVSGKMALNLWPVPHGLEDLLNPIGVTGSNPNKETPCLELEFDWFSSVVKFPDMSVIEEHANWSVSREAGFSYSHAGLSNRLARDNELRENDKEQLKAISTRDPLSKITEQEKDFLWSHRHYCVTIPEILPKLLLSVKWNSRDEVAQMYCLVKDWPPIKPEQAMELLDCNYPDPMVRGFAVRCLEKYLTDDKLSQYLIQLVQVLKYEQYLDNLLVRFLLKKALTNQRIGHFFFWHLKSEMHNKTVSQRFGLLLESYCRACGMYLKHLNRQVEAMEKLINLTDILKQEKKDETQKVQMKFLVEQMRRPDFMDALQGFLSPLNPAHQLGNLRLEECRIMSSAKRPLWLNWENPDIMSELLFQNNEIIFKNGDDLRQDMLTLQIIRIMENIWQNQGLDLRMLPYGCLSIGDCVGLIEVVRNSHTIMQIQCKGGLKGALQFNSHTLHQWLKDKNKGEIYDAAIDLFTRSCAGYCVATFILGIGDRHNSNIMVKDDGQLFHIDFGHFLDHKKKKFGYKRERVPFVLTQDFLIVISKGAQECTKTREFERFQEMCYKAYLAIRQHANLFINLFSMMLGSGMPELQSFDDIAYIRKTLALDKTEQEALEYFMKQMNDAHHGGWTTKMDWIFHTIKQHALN

[6] = tested on: PIK3CA (human), P42336 [E545A]; conditions: compound 10.0 µM
[7] = tested on: PIK3CA (human), P42336 [E545K]; conditions: compound 10.0 µM
[8] = tested on: PIK3CA (human), P42336 [H1047Y]; conditions: compound 10.0 µM
Sequence of PIK3CA (human), P42336 [H1047Y] (P42336 whole entry H1047Y, looked up): as the sequence (P42336 whole entry E542K, looked up) above, with K542E, H1047Y counted along it

[9] = tested on: PIK3CA (human), P42336 [M1043I]; conditions: compound 10.0 µM
PKMYT1 (human) = PKMYT1 (human) (UniProt Q99640); conditions: compound 10.0 µM
PLK4 (human) = PLK4 (human) (UniProt O00444)
Sequence of PLK4 (human) (O00444 whole entry, looked up): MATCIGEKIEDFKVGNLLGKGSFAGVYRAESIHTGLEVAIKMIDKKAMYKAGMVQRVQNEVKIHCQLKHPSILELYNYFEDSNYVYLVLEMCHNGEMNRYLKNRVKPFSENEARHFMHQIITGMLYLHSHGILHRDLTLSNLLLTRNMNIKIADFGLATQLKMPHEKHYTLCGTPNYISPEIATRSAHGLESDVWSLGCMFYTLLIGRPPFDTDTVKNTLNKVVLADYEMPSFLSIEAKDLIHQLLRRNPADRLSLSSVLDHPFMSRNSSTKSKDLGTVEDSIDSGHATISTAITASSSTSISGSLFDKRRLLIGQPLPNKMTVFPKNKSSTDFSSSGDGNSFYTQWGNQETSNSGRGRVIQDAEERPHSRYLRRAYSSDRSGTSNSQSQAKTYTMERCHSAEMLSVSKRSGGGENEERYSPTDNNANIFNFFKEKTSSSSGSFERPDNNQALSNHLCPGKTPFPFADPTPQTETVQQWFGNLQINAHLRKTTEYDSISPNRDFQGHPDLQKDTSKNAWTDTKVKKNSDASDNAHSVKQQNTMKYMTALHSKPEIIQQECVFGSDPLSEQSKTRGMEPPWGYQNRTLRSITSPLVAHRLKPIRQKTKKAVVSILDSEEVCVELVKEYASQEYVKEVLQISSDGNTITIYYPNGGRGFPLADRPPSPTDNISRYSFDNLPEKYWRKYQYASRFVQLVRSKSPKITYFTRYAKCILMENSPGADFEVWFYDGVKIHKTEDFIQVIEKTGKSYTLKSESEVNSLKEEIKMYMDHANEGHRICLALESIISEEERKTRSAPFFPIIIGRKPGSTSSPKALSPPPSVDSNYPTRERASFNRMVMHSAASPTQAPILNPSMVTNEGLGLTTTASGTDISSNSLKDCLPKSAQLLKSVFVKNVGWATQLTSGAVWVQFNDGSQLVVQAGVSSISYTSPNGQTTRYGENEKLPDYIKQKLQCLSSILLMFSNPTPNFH

PRKAA2 (human) = PRKAA2 (human) (UniProt P54646); conditions: compound 10.0 µM
PRKACA (human) = PRKACA (human) (UniProt P17612); conditions: compound 10.0 µM
PRKD1 (human) = PRKD1 (human) (UniProt Q15139); conditions: compound 10.0 µM
PTK2 (human) = PTK2 (human) (UniProt Q05397); conditions: compound 10.0 µM
RIOK3 (human) = RIOK3 (human) (UniProt O14730); conditions: compound 10.0 µM
Sequence of RIOK3 (human) (O14730 whole entry, looked up): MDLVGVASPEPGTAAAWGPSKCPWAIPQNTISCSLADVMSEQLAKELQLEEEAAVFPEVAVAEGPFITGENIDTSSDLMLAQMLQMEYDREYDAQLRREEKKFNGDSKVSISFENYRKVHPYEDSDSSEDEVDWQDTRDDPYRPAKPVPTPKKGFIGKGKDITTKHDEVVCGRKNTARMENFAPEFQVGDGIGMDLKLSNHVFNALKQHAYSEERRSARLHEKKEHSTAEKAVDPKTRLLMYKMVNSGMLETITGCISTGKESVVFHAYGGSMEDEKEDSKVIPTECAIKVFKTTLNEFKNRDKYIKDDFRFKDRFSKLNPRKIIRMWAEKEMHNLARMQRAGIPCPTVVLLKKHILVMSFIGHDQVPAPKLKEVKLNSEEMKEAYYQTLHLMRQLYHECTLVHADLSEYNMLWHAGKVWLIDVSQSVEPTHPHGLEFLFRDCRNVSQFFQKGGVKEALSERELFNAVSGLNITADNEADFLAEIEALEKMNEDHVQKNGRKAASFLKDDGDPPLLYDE

RPS6KA5 KD1 (human) = RPS6KA5 KD1 (human) (UniProt O75582); conditions: compound 10.0 µM
SGK3 (human) = SGK3 (human) (UniProt Q96BR1); conditions: compound 10.0 µM
SRMS (human) = SRMS (human) (UniProt Q9H3Y6); conditions: compound 10.0 µM
Sequence of SRMS (human) (Q9H3Y6 whole entry, looked up): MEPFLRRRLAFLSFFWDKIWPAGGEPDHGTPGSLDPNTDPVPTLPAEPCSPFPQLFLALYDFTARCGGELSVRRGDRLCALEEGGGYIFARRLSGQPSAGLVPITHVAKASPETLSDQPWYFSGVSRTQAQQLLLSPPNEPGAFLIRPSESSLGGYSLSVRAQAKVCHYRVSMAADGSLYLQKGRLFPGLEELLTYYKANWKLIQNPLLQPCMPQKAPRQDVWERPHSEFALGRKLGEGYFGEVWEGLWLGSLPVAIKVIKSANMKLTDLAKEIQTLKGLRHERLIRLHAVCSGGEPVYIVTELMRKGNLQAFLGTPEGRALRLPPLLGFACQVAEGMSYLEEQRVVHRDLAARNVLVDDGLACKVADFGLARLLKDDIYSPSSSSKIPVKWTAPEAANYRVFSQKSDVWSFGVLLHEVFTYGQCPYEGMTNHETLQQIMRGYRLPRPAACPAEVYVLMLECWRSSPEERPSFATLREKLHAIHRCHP

Sequence of AURKC (human) (Q9UQB9 whole entry, looked up): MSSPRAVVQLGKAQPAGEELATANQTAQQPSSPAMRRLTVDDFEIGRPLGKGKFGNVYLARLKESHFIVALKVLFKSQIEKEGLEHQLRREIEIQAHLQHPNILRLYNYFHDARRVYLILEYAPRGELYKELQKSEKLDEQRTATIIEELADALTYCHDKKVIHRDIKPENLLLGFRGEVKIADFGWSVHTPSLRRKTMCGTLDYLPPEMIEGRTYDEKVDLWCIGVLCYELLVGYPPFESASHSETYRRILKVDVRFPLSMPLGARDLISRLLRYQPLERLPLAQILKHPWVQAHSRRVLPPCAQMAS

## COc1cc(C(=O)N2CCC(N3CCN(C)CC3)CC2)ccc1Nc1ncc2c(n1)N(C)c1ccccc1C(=O)N2C
[1]
  kinase still bound, per cent of control: 89%
AURKC (human)
  kinase still bound, per cent of control: 50%
BMPR2 (human)
  kinase still bound, per cent of control: 100%
CAMK2G (human)
  kinase still bound, per cent of control: 47%
CASK (human)
  kinase still bound, per cent of control: 85%
CDC2L2 (human)
  residual activity: 82%
CDK4 CCND3 (human)
  residual activity: 100%
CDK8 (human)
  residual activity: 100%
CLK1 (human)
  kinase still bound, per cent of control: 28%
CSK (human)
  kinase still bound, per cent of control: 90%
DAPK3 (human)
  kinase still bound, per cent of control: 67%
EGFR (human)
  kinase still bound, per cent of control: 84%
[2]
  kinase still bound, per cent of control: 100%
EPHA6 (human)
  kinase still bound, per cent of control: 89%
EPHB2 (human)
  kinase still bound, per cent of control: 100%
HIPK2 (human)
  kinase still bound, per cent of control: 88%
IRAK3 (human)
  kinase still bound, per cent of control: 100%
KDR (human)
  kinase still bound, per cent of control: 84%
[3]
  kinase still bound, per cent of control: 100%
MAPKAPK5 (human)
  kinase still bound, per cent of control: 97%
MERTK (human)
  kinase still bound, per cent of control: 100%
[4]
  kinase still bound, per cent of control: 100%
NTRK1 (human)
  kinase still bound, per cent of control: 69%
NTRK2 (human)
  kinase still bound, per cent of control: 100%
NUAK1 (human)
  kinase still bound, per cent of control: 47%
OXSR1 (human)
  kinase still bound, per cent of control: 88%
[5]
  kinase still bound, per cent of control: 77%
[6]
  kinase still bound, per cent of control: 98%
[7]
  kinase still bound, per cent of control: 100%
[8]
  kinase still bound, per cent of control: 71%
[9]
  kinase still bound, per cent of control: 65%
PKMYT1 (human)
  kinase still bound, per cent of control: 80%
PLK4 (human)
  Kd: 16 nM
PLK4 (human); compound 10.0 µM
  kinase still bound, per cent of control: 0%
PRKAA2 (human)
  kinase still bound, per cent of control: 66%
PRKACA (human)
  residual activity: 100%
PRKD1 (human)
  kinase still bound, per cent of control: 28%
PTK2 (human)
  kinase still bound, per cent of control: 34%
RIOK3 (human)
  kinase still bound, per cent of control: 85%
RPS6KA5 KD1 (human)
  kinase still bound, per cent of control: 96%
SGK3 (human)
  kinase still bound, per cent of control: 95%
SRMS (human)
  kinase still bound, per cent of control: 77%
